Results from ChEMBL document CHEMBL1201862, “PubChem BioAssay data set” (2004).
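Exposure lasted 48 hours, with cells grown in 96-well plates and compounds tested at five concentrations. Here, GI50 denotes the concentration required for 50% inhibition of growth.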 Activity calls are given as the source filed them. Cut-off read from the data, not from the text of the source: active = GI50 up to about 1.1 µM and inactive = higher.

Key:
Test in all cases: DTP human tumour cell line panel, 48 h
BT-549 = test system: BT-549
CAKI-1 = test system: CAKI-1
HCC 2998 = test system: HCC 2998
HOP-92 = test system: HOP-92
HT-29 = test system: HT-29
IGROV-1 = test system: IGROV-1
K562 = test system: K562
MDA-MB-231 = test system: MDA-MB-231
MDA-MB-435 = test system: MDA-MB-435
NCI-H460 = test system: NCI-H460
OVCAR-3 = test system: OVCAR-3
PC-3 = test system: PC-3
RXF 393 = test system: RXF 393
SK-OV-3 = test system: SK-OV-3
SN12C = test system: SN12C
SNB-19 = test system: SNB-19
SR = test system: SR
UACC-62 = test system: UACC-62
UO-31 = test system: UO-31
HL-60 = test system: HL-60

Row | Compound | GI50 (BT-549) | GI50 (CAKI-1) | GI50 (HCC 2998) | GI50 (HOP-92) | GI50 (HT-29) | GI50 (IGROV-1) | GI50 (K562) | GI50 (MDA-MB-231) | GI50 (MDA-MB-435) | GI50 (NCI-H460) | GI50 (OVCAR-3) | GI50 (PC-3) | GI50 (RXF 393) | GI50 (SK-OV-3) | GI50 (SN12C) | GI50 (SNB-19) | GI50 (SR) | GI50 (UACC-62) | GI50 (UO-31) | GI50 (HL-60)
1 | Nc1ncn(C/C=C/c2ccccc2)c2ncnc1-2 | > 100 µM (inactive) | > 100 µM (inactive) | > 100 µM (inactive) | > 100 µM (inactive) | 50.9 µM (inactive) | > 100 µM (inactive) | 8.93 µM (inactive) | > 100 µM (inactive) | > 100 µM (inactive) | > 100 µM (inactive) | > 100 µM (inactive) | > 100 µM (inactive) | > 100 µM (inactive) | > 100 µM (inactive) | > 100 µM (inactive) | > 100 µM (inactive) | 21.4 µM (inactive) | > 100 µM (inactive) | > 100 µM (inactive) | 
2 | O=C(O[C@H]1CCN2C[C@H]3C[C@H](CN4C(=O)CCC[C@H]34)[C@@H]2C1)c1ccc(O)cc1 | > 100 µM (inactive) | > 100 µM (inactive) | > 100 µM (inactive) | > 100 µM (inactive) | > 100 µM (inactive) | > 100 µM (inactive) | > 100 µM (inactive) | > 100 µM (inactive) | > 100 µM (inactive) | > 100 µM (inactive) | > 100 µM (inactive) | > 100 µM (inactive) | > 100 µM (inactive) | > 100 µM (inactive) | > 100 µM (inactive) | > 100 µM (inactive) | > 100 µM (inactive) | > 100 µM (inactive) | > 100 µM (inactive) | 
3 | O=C1Oc2ccccc2C1C/C(=N\Nc1ccccc1)c1ccccc1O (stereo unspecified) | 28.6 µM (inactive) | 25.6 µM (inactive) | 34.8 µM (inactive) | 25.6 µM (inactive) | 28.4 µM (inactive) | 17 µM (inactive) |  | 28.9 µM (inactive) | 27.2 µM (inactive) | 34.4 µM (inactive) | 32.8 µM (inactive) | 30.2 µM (inactive) | 53.7 µM (inactive) | 62.1 µM (inactive) | 42 µM (inactive) | > 100 µM (inactive) | 27.4 µM (inactive) | 33.9 µM (inactive) | 23.3 µM (inactive) | 34.2 µM (inactive)
4 | Cc1nc2ccccc2c(=O)n1NC(=S)Nc1ccc(Cl)cc1[N+](=O)[O-] | > 100 µM (inactive) | > 100 µM (inactive) |  | > 100 µM (inactive) | > 100 µM (inactive) | > 100 µM (inactive) | > 100 µM (inactive) | > 100 µM (inactive) | > 100 µM (inactive) | > 100 µM (inactive) | > 100 µM (inactive) | > 100 µM (inactive) | > 100 µM (inactive) | > 100 µM (inactive) | > 100 µM (inactive) | > 72.8 µM (inactive) | > 100 µM (inactive) | > 100 µM (inactive) | > 55.5 µM (inactive) | > 100 µM (inactive)
5 | CC12CN(CC[N+](C)(C)C)CC1(C)C1CCC2O1 (stereo unspecified) | > 100 µM (inactive) | > 100 µM (inactive) | > 100 µM (inactive) | > 100 µM (inactive) | > 100 µM (inactive) | > 100 µM (inactive) | > 100 µM (inactive) | > 100 µM (inactive) | > 100 µM (inactive) | > 100 µM (inactive) | > 100 µM (inactive) | > 100 µM (inactive) | > 100 µM (inactive) | > 100 µM (inactive) | > 100 µM (inactive) | > 100 µM (inactive) | > 100 µM (inactive) | > 100 µM (inactive) | > 100 µM (inactive) | 
6 | O=C1CC[C@@]2(O)[C@H]3Cc4ccc(-c5cccc(O)c5)c5c4[C@@]2(CCN3CC2CC2)[C@H]1O5 | 21.6 µM (inactive) | 37.6 µM (inactive) | 16.4 µM (inactive) | 25.7 µM (inactive) | 11.3 µM (inactive) | 23.6 µM (inactive) | 21.9 µM (inactive) | 22.4 µM (inactive) | 14 µM (inactive) | 0.839 µM (active) | 22 µM (inactive) | 20.3 µM (inactive) | 17.3 µM (inactive) |  | 17.6 µM (inactive) | 4.3 µM (inactive) | 26.3 µM (inactive) | 10.7 µM (inactive) | 14.1 µM (inactive) | 0.0553 µM (active)
7 | C#CCOC(=O)C(N)CCCNC(=N)N (stereo unspecified) | > 100 µM (inactive) | > 100 µM (inactive) | > 100 µM (inactive) | > 100 µM (inactive) | > 100 µM (inactive) | > 100 µM (inactive) |  | > 100 µM (inactive) | > 100 µM (inactive) | > 100 µM (inactive) |  | > 100 µM (inactive) | > 100 µM (inactive) |  | > 100 µM (inactive) | > 100 µM (inactive) | > 100 µM (inactive) |  | > 100 µM (inactive) | > 100 µM (inactive)
8 | CCN(CC)C1Oc2cc3c(cc2C(c2ccc(OC)cc2)C1C)OCO3 (stereo unspecified) | 20.8 µM (inactive) | 24.9 µM (inactive) | 19 µM (inactive) | 25.3 µM (inactive) | 18.7 µM (inactive) | 29.5 µM (inactive) | 19.1 µM (inactive) | 23.4 µM (inactive) | 18.9 µM (inactive) | 17.1 µM (inactive) | 18.2 µM (inactive) | 23.8 µM (inactive) | 18.9 µM (inactive) | 40.2 µM (inactive) | 21.7 µM (inactive) | 26.9 µM (inactive) | 12.5 µM (inactive) | 19.1 µM (inactive) | 19.7 µM (inactive) | 
9 | CCOC(=O)C1(N)CCc2[nH][nH]c(=O)c2C1 (stereo unspecified) | > 100 µM (inactive) | > 100 µM (inactive) | > 100 µM (inactive) | > 100 µM (inactive) | > 100 µM (inactive) | > 100 µM (inactive) | > 100 µM (inactive) | > 100 µM (inactive) | > 100 µM (inactive) | > 100 µM (inactive) | > 100 µM (inactive) | > 100 µM (inactive) |  | > 100 µM (inactive) |  | > 100 µM (inactive) | > 100 µM (inactive) | > 100 µM (inactive) | > 100 µM (inactive) | > 100 µM (inactive)
10 | c1ccc(-c2csc3c2-n2cccc2C3N2CCCC2)cc1 (stereo unspecified) | 3.3 µM (inactive) | 72.3 µM (inactive) | 26.1 µM (inactive) | 21 µM (inactive) | 28.2 µM (inactive) | 21.1 µM (inactive) | 22.6 µM (inactive) | 35.6 µM (inactive) | 33.7 µM (inactive) | 44.4 µM (inactive) | 6.9 µM (inactive) | 32.7 µM (inactive) | > 100 µM (inactive) |  | > 100 µM (inactive) | 19.6 µM (inactive) | 57.7 µM (inactive) |  | > 100 µM (inactive) | 23.5 µM (inactive)
11 | COc1cccc(-c2ccc3c4c2O[C@H]2C(=O)CC[C@@]5(O)[C@@H](C3)N(CC3CC3)CC[C@]425)c1 | 18.4 µM (inactive) | 16.6 µM (inactive) |  | 15.3 µM (inactive) | 11.6 µM (inactive) | 21.8 µM (inactive) | 13.5 µM (inactive) | 15.8 µM (inactive) | 12.9 µM (inactive) | 28.9 µM (inactive) | 14.4 µM (inactive) | 13.4 µM (inactive) | 8.53 µM (inactive) | 18.7 µM (inactive) | 18.5 µM (inactive) | 20.7 µM (inactive) | 10.3 µM (inactive) | 17.1 µM (inactive) | 14.5 µM (inactive) | 19.1 µM (inactive)
12 | COc1cc(OCc2ccccc2)c2c(CCC(=O)O)cc(=O)oc2c1.COc1cc(OCc2ccccc2)cc2oc(=O)cc(CCC(=O)O)c12 | 57.5 µM (inactive) | 28.6 µM (inactive) | 56.5 µM (inactive) | 32 µM (inactive) | 36.7 µM (inactive) | 51.2 µM (inactive) | 49 µM (inactive) | 29.1 µM (inactive) | 61.7 µM (inactive) |  | 31 µM (inactive) | 56.8 µM (inactive) |  | 82.4 µM (inactive) |  | 92.3 µM (inactive) | 38.9 µM (inactive) | 63.2 µM (inactive) | 43.4 µM (inactive) | 34.1 µM (inactive)
13 | c1ccc([B-]2(c3ccccc3)OCCc3cccc[n+]32)cc1 | 31.6 µM (inactive) | 33 µM (inactive) |  | 28.2 µM (inactive) | 87.1 µM (inactive) | 66.1 µM (inactive) | > 100 µM (inactive) | 84.5 µM (inactive) | 33.3 µM (inactive) | 60.3 µM (inactive) | 51.8 µM (inactive) | 18.5 µM (inactive) | 33.3 µM (inactive) | 74.8 µM (inactive) | 59.3 µM (inactive) | > 100 µM (inactive) | 22.8 µM (inactive) | 58.3 µM (inactive) | 23.7 µM (inactive) | 40.8 µM (inactive)
14 | O=S1(=O)OCCOS(=O)(=O)C1S(=O)(=O)c1ccc2ccccc2c1 | > 100 µM (inactive) | > 100 µM (inactive) | > 100 µM (inactive) | > 100 µM (inactive) | > 100 µM (inactive) | > 100 µM (inactive) | > 100 µM (inactive) | > 100 µM (inactive) | > 100 µM (inactive) | > 100 µM (inactive) | > 100 µM (inactive) | > 100 µM (inactive) |  |  | > 100 µM (inactive) | > 100 µM (inactive) | > 100 µM (inactive) |  | > 100 µM (inactive) | > 100 µM (inactive)
15 | COc1c(OC/C=C(\C)CCC=C(C)C)ccc2ccc(=O)oc12 [COLLININ] | 53.3 µM (inactive) | > 100 µM (inactive) | > 100 µM (inactive) | 77.4 µM (inactive) | 94.4 µM (inactive) | > 100 µM (inactive) | > 100 µM (inactive) | > 100 µM (inactive) | > 100 µM (inactive) | > 10 µM (inactive) | > 100 µM (inactive) | 24.2 µM (inactive) |  | > 100 µM (inactive) | > 100 µM (inactive) | 65.2 µM (inactive) | 61.5 µM (inactive) | 94.2 µM (inactive) | > 100 µM (inactive) | 43.4 µM (inactive)
